{"source": "ChEMBL document CHEMBL1201862", "about": "“PubChem BioAssay data set” (2004)", "experiment_in_all_cases": "DTP human tumour cell line panel, 48 h", "key": {"NCI-H23": {"test_system": "NCI-H23"}, "SNB-78": {"test_system": "SNB-78"}, "DMS-273": {"test_system": "DMS-273"}, "M14": {"test_system": "M14"}, "SN12C": {"test_system": "SN12C"}, "UACC-62": {"test_system": "UACC-62"}, "TK-10": {"test_system": "TK-10"}, "SF-539": {"test_system": "SF-539"}, "HCC 2998": {"test_system": "HCC 2998"}, "COLO 205": {"test_system": "COLO 205"}, "CAKI-1": {"test_system": "CAKI-1"}, "HCT-15": {"test_system": "HCT-15"}, "UACC-257": {"test_system": "UACC-257"}, "RXF 393": {"test_system": "RXF 393"}, "OVCAR-4": {"test_system": "OVCAR-4"}, "LXFL 529": {"test_system": "LXFL 529"}, "XF498": {"test_system": "XF498"}, "CCRF-CEM": {"test_system": "CCRF-CEM"}, "SNB-19": {"test_system": "SNB-19"}, "SK-MEL-2": {"test_system": "SK-MEL-2"}, "NCI-H522": {"test_system": "NCI-H522"}, "NCI-H460": {"test_system": "NCI-H460"}, "RPMI-8226": {"test_system": "RPMI-8226"}, "SNB-75": {"test_system": "SNB-75"}, "SK-MEL-28": {"test_system": "SK-MEL-28"}, "DLD-1": {"test_system": "DLD-1"}, "A549": {"test_system": "A549"}, "KM12": {"test_system": "KM12"}, "SF-268": {"test_system": "SF-268"}, "ACHN": {"test_system": "ACHN"}, "HOP-18": {"test_system": "HOP-18"}, "EKVX": {"test_system": "EKVX"}, "OVCAR-8": {"test_system": "OVCAR-8"}, "KM-20L2": {"test_system": "KM-20L2"}, "K562": {"test_system": "K562"}, "MOLT-4": {"test_system": "MOLT-4"}, "Malme-3M": {"test_system": "Malme-3M"}, "SW-620": {"test_system": "SW-620"}, "SK-OV-3": {"test_system": "SK-OV-3"}, "786-0": {"test_system": "786-0"}, "IGROV-1": {"test_system": "IGROV-1"}, "A498": {"test_system": "A498"}, "OVCAR-5": {"test_system": "OVCAR-5"}, "U-251": {"test_system": "U-251"}, "HL-60": {"test_system": "HL-60"}, "UO-31": {"test_system": "UO-31"}, "HT-29": {"test_system": "HT-29"}, "SF-295": {"test_system": "SF-295"}, "SK-MEL-5": {"test_system": "SK-MEL-5"}, "LOX IMVI": {"test_system": "LOX IMVI"}}, "note": "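Protocol summary: plate cells (96-well), add compound at 5 concentrations, incubate 48 h, interpolate endpoints linearly. The concentration for 50% growth inhibition is given as GI50.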 Activity calls are given as the source filed them. Cut-off read from the data, not from the text of the source: active = GI50 up to about 1.1 µM and inactive = higher.", "data": [{"smiles": "Cn1c2cc([N+](=O)[O-])ccc2c(=O)c2c(O)cc3c(c21)C=CC(C)(C)O3", "values": [{"measurement": "GI50", "setting": "NCI-H23", "value": "63.4 µM (inactive)"}, {"measurement": "GI50", "setting": "SNB-78", "value": "40.5 µM (inactive)"}, {"measurement": "GI50", "setting": "DMS-273", "value": "54 µM (inactive)"}, {"measurement": "GI50", "setting": "M14", "value": "> 100 µM (inactive)"}, {"measurement": "GI50", "setting": "SN12C", "value": "> 100 µM (inactive)"}, {"measurement": "GI50", "setting": "UACC-62", "value": "25.1 µM (inactive)"}, {"measurement": "GI50", "setting": "TK-10", "value": "37.1 µM (inactive)"}, {"measurement": "GI50", "setting": "SF-539", "value": "14.8 µM (inactive)"}, {"measurement": "GI50", "setting": "HCC 2998", "value": "> 100 µM (inactive)"}, {"measurement": "GI50", "setting": "COLO 205", "value": "> 100 µM (inactive)"}, {"measurement": "GI50", "setting": "CAKI-1", "value": "60.5 µM (inactive)"}, {"measurement": "GI50", "setting": "HCT-15", "value": "> 100", "unit": "µM"}, {"measurement": "GI50", "setting": "UACC-257", "value": "> 100 µM (inactive)"}, {"measurement": "GI50", "setting": "RXF 393", "value": "25.9 µM (inactive)"}, {"measurement": "GI50", "setting": "OVCAR-4", "value": "> 100 µM (inactive)"}, {"measurement": "GI50", "setting": "LXFL 529", "value": "28.4 µM (inactive)"}, {"measurement": "GI50", "setting": "XF498", "value": "21 µM (inactive)"}, {"measurement": "GI50", "setting": "CCRF-CEM", "value": "> 100 µM (inactive)"}, {"measurement": "GI50", "setting": "SNB-19", "value": "31.6 µM (inactive)"}, {"measurement": "GI50", "setting": "SK-MEL-2", "value": "40.7 µM (inactive)"}, {"measurement": "GI50", "setting": "NCI-H522", "value": "46.5 µM (inactive)"}, {"measurement": "GI50", "setting": "NCI-H460", "value": "> 100 µM (inactive)"}, {"measurement": "GI50", "setting": "RPMI-8226", "value": "> 100 µM (inactive)"}, {"measurement": "GI50", "setting": "SNB-75", "value": "10.1 µM (inactive)"}, {"measurement": "GI50", "setting": "SK-MEL-28", "value": "> 100 µM (inactive)"}, {"measurement": "GI50", "setting": "DLD-1", "value": "> 100 µM (inactive)"}, {"measurement": "GI50", "setting": "A549", "value": "57.4 µM (inactive)"}, {"measurement": "GI50", "setting": "KM12", "value": "> 100 µM (inactive)"}, {"measurement": "GI50", "setting": "SF-268", "value": "35.1 µM (inactive)"}, {"measurement": "GI50", "setting": "ACHN", "value": "> 100 µM (inactive)"}, {"measurement": "GI50", "setting": "HOP-18", "value": "< 0.01 µM (active)"}, {"measurement": "GI50", "setting": "EKVX", "value": "22 µM (inactive)"}, {"measurement": "GI50", "setting": "OVCAR-8", "value": "59.3 µM (inactive)"}, {"measurement": "GI50", "setting": "KM-20L2", "value": "> 100 µM (inactive)"}, {"measurement": "GI50", "setting": "K562", "value": "> 100 µM (inactive)"}, {"measurement": "GI50", "setting": "MOLT-4", "value": "> 100 µM (inactive)"}, {"measurement": "GI50", "setting": "Malme-3M", "value": "> 100 µM (inactive)"}, {"measurement": "GI50", "setting": "SW-620", "value": "> 100 µM (inactive)"}, {"measurement": "GI50", "setting": "SK-OV-3", "value": "21.9 µM (inactive)"}, {"measurement": "GI50", "setting": "786-0", "value": "44.3 µM (inactive)"}, {"measurement": "GI50", "setting": "IGROV-1", "value": "31.1 µM (inactive)"}, {"measurement": "GI50", "setting": "A498", "value": "33.5 µM (inactive)"}, {"measurement": "GI50", "setting": "OVCAR-5", "value": "32 µM (inactive)"}, {"measurement": "GI50", "setting": "U-251", "value": "> 100 µM (inactive)"}, {"measurement": "GI50", "setting": "HL-60", "value": "> 100 µM (inactive)"}, {"measurement": "GI50", "setting": "UO-31", "value": "26.7 µM (inactive)"}, {"measurement": "GI50", "setting": "HT-29", "value": "> 100 µM (inactive)"}, {"measurement": "GI50", "setting": "SF-295", "value": "16.9 µM (inactive)"}, {"measurement": "GI50", "setting": "SK-MEL-5", "value": "> 100 µM (inactive)"}, {"measurement": "GI50", "setting": "LOX IMVI", "value": "> 100 µM (inactive)"}]}]}
